Data from paper PMC7071076, “Antibacterial Activity and Pharmacokinetic Profile of a Promising Antibacterial Agent: 22-(2-Amino-phenylsulfanyl)-22-Deoxypleuromutilin” (Molecules, 2020).
≈ marks a conversion by molar mass, not a printed value. Counter-ions that a name gives are not always drawn. Like-named read-outs stand apart in the source and are kept apart here.

Tests used:
MRSA ATCC 43300 [1] = assay: MRSA wound infection model: wound size; type: in vivo, mice; conditions: after treatment for three days; 100 μL drug (3 mg/mL) on the wound
Experimental: (§1) Six weeks SPF-ICR female mice were used for this study. The Experimental model, inducted of inflammatory in mice by skin excision, was established referring to existing methods with some alterations. The mice were anesthetized with the intravenous injection of 1% sodium pentobarbital. After their hair on the back was shaved, the mice were anesthetized and the back skin was perforated with a biopsy perforator at a depth of fascia injury. The inoculum (50 μL), containing 10^9 CFU/mL of the indicated microorganism (MRSA ATCC 43300), was applied on the wound for three times at 30 min intervals. 100 μL drug (3 mg/mL) was administrated on the wound at 1 h after inoculation for three consecutive days. A total of 100 μL blank matrix was given to the infected control group and the non-infected group in the same way. The wound was wrapped with sterile gauze. During the treatment, all mice were kept individually and free to eat and drink.
The wounds were examined on day 1 and days 3 after treatment. The area of wound were measured according to previous reports with some modifications. In each group, six mice were taken out and anesthetized to take photos and measure the size of the wound as the results.

MRSA ATCC 43300 [2] = assay: MRSA wound infection model: wound bacterial burden; type: in vivo, mice
Experimental: as §1
At the end of the examination, mice were anesthetized and killed. Tissue samples, reaching to the muscle membrane, were removed from the middle of the wound surface and homogenized in 0.9% saline. Serially diluted aliquots of homogenate were cultured on high-salt mannitol agar plate at 37 °C for 24 h. The log of the colony number was used for statistical analysis.

S. aureus ATCC 29213 = assay: MIC testing (broth dilution, 96-well plate); type: cell-based; conditions: Staphylococcus aureus, ATCC29213
Experimental: (§2) The MIC of amphenmulin against MRSA, Escherichia coli, Salmonella typhimurium, Enterococcus faecalis, and Enterococcus faecium were determined using tiamulin as controls. MIC values were measured by the method of previous work. Staphylococcus aureus ATCC 29213 was used as the quality control bacteria, and the quality control range was referred to the Clinical and Laboratory Standards Institute (CLSI). The bacteria solution was diluted to ~10^6 CFU/mL with Mueller–Hinton (MH) broth for MRSA, Escherichia coli and Salmonella typhimurium while Trypticase Soy Broth for Enterococcus faecalis and Enterococcus faecium. Drugs were dissolved in an aqueous solution of N, N-dimethylformamide (DMF) at a concentration of 2560 µg/mL, and then diluted with broth to prepare working solution (1280 µg/mL). The drug susceptibility testing was performed in 96-well plate. A total of 20 µL of working solution was added into column 1 and well mixed as a 10-fold dilution, following which Serial 2-fold dilutions were prepared to provide concentration ranges of 128–0.0078 µg/mL. Blank broth (no cultures) and bacteria solution (drugs replaced by blank solvent) were set as drug-free controls. Each 96-well plate was cultured at 37 °C for 24 h. The MIC value is the lowest concentration of amphenmulin which inhibits the visible growth of bacteria. The experiment was repeated three times.

E. faecalis ATCC 29212 = assay: MIC testing (broth dilution, 96-well plate); type: cell-based; conditions: Enterococcus faecalis, ATCC29212
Experimental: as §2

[3] = tested on: S. typhimurium ATCC 14028; assay: MIC testing (broth dilution, 96-well plate); type: cell-based; conditions: Salmonella enterica
Experimental: as §2

E. faecium ATCC 35667 = assay: MIC testing (broth dilution, 96-well plate); type: cell-based; conditions: Enterococcus faecium, ATCC35667
Experimental: as §2

E. coli ATCC 25922 = assay: MIC testing (broth dilution, 96-well plate); type: cell-based; conditions: Escherichia coli, ATCC25922
Experimental: as §2

MRSA ATCC 43300 [4] = tested on: MRSA ATCC 43300; parameters: method as in PMID 28295316; conditions: 4× MIC, cited from earlier work
MRSA N30 = assay: MIC testing, clinical strain; type: cell-based; conditions: Staphylococcus aureus
Source text: (§3) Methicillin-resistant Staphylococcus aureus (MRSA) ATCC 43300, Staphylococcus aureus ATCC 29213, Escherichia coli ATCC 25922, Salmonella typhimurium ATCC 14028, Enterococcus faecalis ATCC 29212, and Enterococcus faecium ATCC 35667 were obtained from the China Institute of Veterinary Drug Control (Beijing, China). Five clinical strains of MRSA (N7, N9, N20, N30, and N54) were isolated from diseased pig tissues of South China Agricultural University and Foshan University Animal Hospital. All clinical strains were identified as MRSA by Gram stain, catalase reaction, coagulase test, staphylococcus API identification system test, MecA gene test, and methicillin MIC test.
as §2

MRSA N20 = assay: MIC testing, clinical strain; type: cell-based; conditions: Staphylococcus aureus
Source text: as §3, §2

MRSA N9 = assay: MIC testing, clinical strain; type: cell-based; conditions: Staphylococcus aureus
Source text: as §3, §2

MRSA N54 = assay: MIC testing, clinical strain; type: cell-based; conditions: Staphylococcus aureus
Source text: as §3, §2

MRSA N7 = assay: MIC testing, clinical strain; type: cell-based; conditions: Staphylococcus aureus
Source text: as §3, §2

MIC (S. aureus ATCC 29213) [µg/mL] | MIC (E. faecalis ATCC 29212) [µg/mL] | MIC [3] [µg/mL] | MIC (E. faecium ATCC 35667) [µg/mL] | MIC (E. coli ATCC 25922) [µg/mL] | MIC (MRSA N30) [µg/mL] | MIC (MRSA N20) [µg/mL] | MIC (MRSA N9) [µg/mL] | MIC (MRSA N54) [µg/mL] | MIC (MRSA N7) [µg/mL] | Structure (SMILES) | wound area (MRSA ATCC 43300 [1]) [cm^2] | number of bacteria in wound tissue vs infected group (MRSA ATCC 43300 [2]; one day after treatment, p < 0.05) | number of bacteria in wound tissue (MRSA ATCC 43300 [2]; three days after treatment, 100 μL drug (3 mg/mL) on the wound) [log10 CFU/mL] | PAE (MRSA ATCC 43300 [4]; exposure for 1 h) [h] | PAE (MRSA ATCC 43300 [4]; exposure for 2 h) [h]
– | – | – | – | – | – | – | – | – | – | CN[C@H](CC(C)C)C(=O)N[C@H]1C(=O)N[C@@H](CC(N)=O)C(=O)N[C@H]2C(=O)N[C@H]3C(=O)N[C@H](C(=O)N[C@H](C(=O)O)c4cc(O)cc(O)c4-c4cc3ccc4O)[C@H](O)c3ccc(c(Cl)c3)Oc3cc2cc(c3O[C@@H]2O[C@H](CO)[C@@H](O)[C@H](O)[C@H]2O[C@H]2C[C@](C)(N)[C@H](O)[C@H](C)O2)Oc2ccc(cc2Cl)[C@H]1O [vancomycin, vancomycin hydrochloride, reference compound] | 0.44 ± 0.07 | significant decrease | 4.25 ± 0.57 | – | –
0.5 (≈ 1.01 µM) | > 128 | > 128 | 2 (≈ 4.05 µM) | > 128 | 32 (≈ 64.8 µM) | 32 (≈ 64.8 µM) | 0.5 (≈ 1.01 µM) | 0.5 (≈ 1.01 µM) | 16 (≈ 32.4 µM) | C=C[C@]1(C)C[C@@H](OC(=O)CSCCN(CC)CC)[C@]2(C)[C@H](C)CC[C@]3(CCC(=O)[C@H]32)[C@@H](C)[C@@H]1O [Tiamulin, reference compound] | – | – | – | 1.90 | 2.04
